Results: patent US9399646B2 (Genentech, Inc., priority 2010, dated 2016)

What was measured:
MCF-7 cells = experiment: Breast cancer cell viability assay (CellTiter-Glo, 5 days); format: cell-based; details: 5 days' compound exposure; for IC50: Homo sapiens, MCF7, 120 h
In short: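 Eleven-point semilog compound series, final 0.3-0.000003 μM, added to overnight-adhered MCF-7 cells (320/well; RPMI, 10% FBS, 20 mM HEPES) for 5 days. Viability read by CellTiter-Glo luminescence, background from medium without cells subtracted, expressed relative to untreated cells.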

ER-α in MCF-7 cells = molecular target: T1, ER-α in MCF-7 cells (Homo sapiens, UniProt P03372); experiment: Breast cancer cell ER-α in cell western assay (SP1); format: cell-based; parameters: endogenous in cells; host or cells: MCF-7; details: 4 or 24 hr post compound addition; for Emax: MCF7, SP1 antibody, read-out: ER-α In Cell Western Assay (SP1) Max Response; for DC50: SP1 antibody, read-out: ER-α In Cell Western Assay (SP1) IC50
T1 sequence (P03372 1-595): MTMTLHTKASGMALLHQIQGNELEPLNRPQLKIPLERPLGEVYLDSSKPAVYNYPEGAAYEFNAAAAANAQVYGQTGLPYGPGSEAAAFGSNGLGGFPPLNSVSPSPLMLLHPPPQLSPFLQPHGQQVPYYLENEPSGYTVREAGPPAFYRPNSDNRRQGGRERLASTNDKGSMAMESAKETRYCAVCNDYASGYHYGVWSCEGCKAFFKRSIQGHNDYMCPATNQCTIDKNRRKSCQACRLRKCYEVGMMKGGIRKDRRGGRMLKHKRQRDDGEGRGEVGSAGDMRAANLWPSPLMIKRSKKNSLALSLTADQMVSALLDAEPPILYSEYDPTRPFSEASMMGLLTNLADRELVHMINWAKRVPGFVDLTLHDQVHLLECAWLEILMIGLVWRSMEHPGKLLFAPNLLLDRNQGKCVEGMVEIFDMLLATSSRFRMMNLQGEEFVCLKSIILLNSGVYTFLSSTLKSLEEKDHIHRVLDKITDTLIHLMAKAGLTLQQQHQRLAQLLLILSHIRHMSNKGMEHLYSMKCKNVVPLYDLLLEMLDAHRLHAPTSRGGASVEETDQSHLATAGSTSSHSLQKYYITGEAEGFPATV
In short: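 ER-α protein levels were measured in MCF-7 cells after 4 or 24 hr compound exposure (final 0.3–0.000003 μM) in RPMI containing 10% charcoal-stripped FBS.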

| SMILES | IC50 (MCF-7 cells) [nM] | Emax (ER-α in MCF-7 cells) [%] | DC50 (ER-α in MCF-7 cells) [nM] | MCF7 Viability Assay Max Response (MCF-7 cells) |
| --- | --- | --- | --- | --- |
| CC/C(=C(/c1ccc(/C=C/C(=O)O)cc1)c1ccc2[nH]ncc2c1)c1ccncc1C#N [Compound 303, (E)-3-(4-((E)-2-(3-Cyanopyridin-4-yl)-1-(1H-indazol-5-yl)but-1-en-1-yl)phenyl)acrylic acid] | > 100 | ≥ 40 | > 100 | ++ (++ = a single % value ≧ 40%) |
| CC/C(=C(/c1ccc(/C=C/C(=O)O)cc1)c1ccc2ccccc2c1)c1ccccc1 [Compound 123, (E)-3-(4-((E)-1-(Naphthalen-2-yl)-2-phenylbut-1-en-1-yl)phenyl)acrylic acid] | > 100 | ≥ 40 | ≤ 100 | ++ (++ = a single % value ≧ 40%) |
| CC/C(=C(/c1ccc(/C=C/C(=O)O)cc1)c1ccc2c(c1)CNC2=O)c1ccc(F)cc1Cl [Compound 287, (E)-3-(4-((E)-2-(2-Chloro-4-fluorophenyl)-1-(1-oxoisoindolin-5-yl)but-1-en-1-yl)phenyl)acrylic acid] | ≤ 100 | ≥ 40 | ≤ 100 | ++ (++ = a single % value ≧ 40%) |
| CC/C(=C(/c1ccc(/C=C/C(=O)O)cc1)c1ccc2[nH]ncc2c1)c1cnnn1C [Compound 221, (E)-3-(4-((E)-1-(1H-Indazol-5-yl)-2-(1-methyl-1H-1,2,3-triazol-5-yl)but-1-en-1-yl)phenyl)acrylic acid] | > 100 | < 40 | > 100 | + (+ = a single % value < 40%) |
| CCOC(=O)/C=C/c1ccc(/C(=C(/CC)c2ccc(F)cc2Cl)c2ccc3c(cnn3C3CCCCO3)c2)cc1 (stereo not shown) [Compound 193, (E)-Ethyl 3-(4-((E)-2-(2-chloro-4-fluorophenyl)-1-(1-(tetrahydro-2H-pyran-2-yl)-1H-indazol-5-yl)but-1-en-1-yl)phenyl)acrylate] | ≤ 100 | ≥ 40 | > 100 | + (+ = a single % value < 40%) |
| CC/C(=C(/c1ccc(/C=C/C(=O)O)cc1)c1ccc2[nH]ncc2c1)c1cnccn1 [Compound 219, (E)-3-(4-((E)-1-(1H-Indazol-5-yl)-2-(pyrazin-2-yl)but-1-en-1-yl)phenyl)acrylic acid] | > 100 | ≥ 40 | > 100 | ++ (++ = a single % value ≧ 40%) |

Continued, in another order:

| IC50 (MCF-7 cells) [nM] | Emax (ER-α in MCF-7 cells) [%] | DC50 (ER-α in MCF-7 cells) [nM] | SMILES | MCF7 Viability Assay Max Response (MCF-7 cells) |
| --- | --- | --- | --- | --- |
| ≤ 100 | ≥ 40 | ≤ 100 | CC/C(=C(/c1ccc(/C=C/C(=O)O)cc1)c1ccc2[nH]ncc2c1)c1ccc(F)c(Oc2ccccc2)c1 [Compound 294, (E)-3-(4-((E)-2-(4-Fluoro-3-phenoxyphenyl)-1-(1H-indazol-5-yl)but-1-en-1-yl)phenyl)acrylic acid] | ++ (++ = a single % value ≧ 40%) |
| ≤ 100 | ≥ 40 | ≤ 100 | CC/C(=C(/c1ccc(/C=C/C(=O)O)cc1)c1ccc2[nH]ncc2c1)c1cccc(-c2ccccn2)c1 [Compound 390, (E)-3-(4-((E)-1-(1H-Indazol-5-yl)-2-(3-(pyridin-2-yl)phenyl)but-1-en-1-yl)phenyl)acrylic acid] | ++ (++ = a single % value ≧ 40%) |
| ≤ 100 | ≥ 40 | ≤ 100 | CC/C(=C(/c1ccc(/C=C/C(=O)O)cc1)c1ccc2[nH]ncc2c1)c1cccc(Oc2nccs2)c1 [Compound 370, (E)-3-(4-((E)-1-(1H-Indazol-5-yl)-2-(3-(thiazol-2-yloxy)phenyl)but-1-en-1-yl)phenyl)acrylic acid] | ++ (++ = a single % value ≧ 40%) |
| ≤ 100 | ≥ 40 | ≤ 100 | CC/C(=C(/c1ccc(/C=C/C(=O)O)cc1)c1ccc2[nH]ncc2c1)c1ccc2sncc2c1 [Compound 314, (E)-3-(4-((E)-2-(Benzo[d]isothiazol-5-yl)-1-(1H-indazol-5-yl)but-1-en-1-yl)phenyl)acrylic acid] | ++ (++ = a single % value ≧ 40%) |
